Measurements: patent publication US6790645B2, “Oxidation of a cyclohexanone derivative using a brevibacterium cyclohexanone monooxygenase” (E. I. du Pont de Nemours and Company, priority 1999, dated 2004)

How the values were obtained:
[1] = tested on: Brevibacterium monooxygenase 2 (ORF 2.4); test: Spectrophotometric monooxygenase assay (NADPH oxidation at 340 nm), substrate specificity for cyclic ketones, monooxygenase 2; format: biochemical, Brevibacterium sp HCU; details: NADPH 0.3 mM, pH7, 30° C., activities below 2.0 could reflect contaminants
Procedure: (§1) The cyclohexanone monooxygenase activity of each overexpressed enzyme was assayed spectrophotometrically at 340 nm by monitoring the oxidation of NADPH. In a spectrophotometer cuvette containing 50 mM Tris-HCl, 50 mM K Acetate pH7 at 30° C. NADPH 0.3 mM and 20-50 μg of homogenous monooxygenase the reaction was initiated by the addition of 1 mM of cyclohexanone. Substrate specificity of each enzyme was tested with other cyclic ketones added at 0.1 or 0.5 mM.
(§2) Expression of the His6-tagged proteins was done by growing the cells carrying the expression plasmids in 1 l of Luria-Bertani broth (Miller 1972) containing Ampicillin (100 μg/ml) and tetracyclin (10 μg/ml) at 28° C. Riboflavin (1 μg/ml) was also added to the medium since both monooxygenases are flavoproteins. When the absortion reached 0.5 at 600 nm, 1 mM isopropy-thio-b-galactoside (IPTG) was added to the culture. Cells were harvested 1.5 hr later, resuspended in 2 ml of 300 mM NaCl 5% glycerol 20 mM Tris-HCl pH 8.0 (Buffer A) containing 10 mM EDTA and 100 μg lysozyme and disrupted by three freeze/thaw cycles. Nucleic acids were digested by addition of MgCl2 (20 mM) RNAseA and DNAse I (10 μg each). The particulate fraction was removed by centrifugation at 14,000 RPM and the supernatant was mixed for 1 hr at 4° C. with 100 μl of a metal chelation agarose (Ni-NTA Superflow Qiagen, Valencia, Calif.) saturated with Ni(II) and equilibrated Buffer A containing 5 mM imidazole. The resin was washed bathchwise with 10 ml each of Buffer A containing 5, 10, 15, 20, 40, 80, 150 and 300 mM respectively. The bound proteins were eluted between 80 and 150 mM imidazole. Eluted proteins were concentrated by ultrafiltration with a Centricon device (cut off 10,000 Da, Amicon) and the buffer replaced by Buffer A. Homogeneity of the overexpressed proteins is shown in FIG. 3, which show a gel electrophoresis separation of proteins from control E. coli (lane 1), E. coli expressing ORF 1.3 (lane 2) and E. coli expressing ORF 2.4 (lane 3).
(§3) Each monooxygenase oxidized cyclohexanone as measured spectrophoto-metrically by monitoring the oxidation of NADPH at 340 nm. No activity was observed when NADPH was replaced by NADH. The product of the cyclohexanone oxidation was confirmed to be caprolactone by GC-MS analysis. Monooxygenase 1 and 2 have different substrate specificity relative to the number of carbon atoms, the oxidation or the substitution of the ring.

[2] = tested on: Brevibacterium monooxygenase 1 (ORF 1.3); test: Spectrophotometric monooxygenase assay (NADPH oxidation at 340 nm), substrate specificity for cyclic ketones, monooxygenase 1; format: biochemical, Brevibacterium sp HCU; details: NADPH 0.3 mM, pH7, 30° C., activities below 2.0 could reflect contaminants
Procedure: as §1, §2, §3

[3] = tested on: E. coli strains carrying plasmids pPCB1 and pPCB2 that express the monooxygenase ORF 1.3 and ORF 2.4; test: Conversion of cyclohexanone into caprolactone by cell suspensions, GC-MS; format: cell-based; details: 100 ppm cyclohexanone, M9 medium with 0.2% glucose, IPTG-induced cells (FIG. 5)
Procedure: Confirmation of the oxidation of cyclohexanone into caprolactone was determined by GC-Mass Spectrometry on a HP 5890 Gas Chromatograph with HP 5971 mass selective detector equipped with a HP-1 capillary column (Hewlett Packard). Prior to analysis, samples were acidified to pH 3 by HCl, extracted by dichloromethane three times, dried with MgSO4 and filtered.
Twenty ml cultures of E. coli strains carrying plasmids pPCB1 and pPCB2 that express the monooxygenase ORF 1.3 and ORF 2.4 respectively were grown at 30° C. in LB medium containing Ampicillin (100 μg/ml) and tetracyclin (10 μg/ml). When the absorbance reached 0.1 at 600 nm, 1 mM IPTG was added to the culture to induce the monooxygenases. After 1 hr, the cultures were chilled and washed twice with M9 mineral medium (Sambrook, J., Fritsch, E. F. and Maniatis, T. Molecular Cloning: A Laboratory Manual, Second Edition, Cold Spring Harbor Laboratory Press, Cold Spring Harbor (1989)) and resuspended in 2 ml of the same medium containing 0.2% glucose and 100 ppm of cyclohexanone. After one hr the cells were removed from the culture by centrifugation and supernatant was analyzed by GC-MS as described in the General Methods. The GC-MS analysis indicated the disappearance of cyclohexanone and the appearance of caprolactone. […]

O=C1CCCCCCCCCCC1 [cyclododecanone]
Mono 2 rate ([1]; substrate 0.1 mM): 1.2 min⁻¹
Mono 2 rate ([1]; substrate 0.5 mM): 1.8 min⁻¹
Mono 1 rate ([2]; substrate 0.1 mM): 1 min⁻¹
Mono 1 rate ([2]; substrate 0.5 mM): 0.9 min⁻¹

O=C1CCCCCC1 [cycloheptanone]
Mono 2 rate ([1]; substrate 0.1 mM): 3.9 min⁻¹
Mono 2 rate ([1]; substrate 0.5 mM): 8.6 min⁻¹
Mono 1 rate ([2]; substrate 0.1 mM): 4.5 min⁻¹
Mono 1 rate ([2]; substrate 0.5 mM): 18 min⁻¹

O=C1CCCCCCCCC1 [cyclodecanone]
Mono 2 rate ([1]; substrate 0.1 mM): 1.8 min⁻¹
Mono 2 rate ([1]; substrate 0.5 mM): 1.2 min⁻¹
Mono 1 rate ([2]; substrate 0.5 mM): 1 min⁻¹

O=C1CCCCCCC1 [cyclooctanone]
Mono 2 rate ([1]; substrate 0.1 mM): 1.3 min⁻¹
Mono 2 rate ([1]; substrate 0.5 mM): 1.3 min⁻¹
Mono 1 rate ([2]; substrate 0.1 mM): 0.9 min⁻¹
Mono 1 rate ([2]; substrate 0.5 mM): 0.4 min⁻¹

O=C1CCCCC1C1=CCCCC1 (centres unmarked) [2-(cyclohex-1-enyl)cyclohexanone]
Mono 2 rate ([1]; substrate 0.5 mM): 2.4 min⁻¹
Mono 1 rate ([2]; substrate 0.1 mM): 160 min⁻¹
Mono 1 rate ([2]; substrate 0.5 mM): 260 min⁻¹

O=C1CCC1 [cyclobutanone]
Mono 2 rate ([1]; substrate 0.1 mM): 92 min⁻¹
Mono 2 rate ([1]; substrate 0.5 mM): 96 min⁻¹
Mono 1 rate ([2]; substrate 0.1 mM): 235 min⁻¹
Mono 1 rate ([2]; substrate 0.5 mM): 171 min⁻¹

O=C1CCCCCCCCCC1 [cycloundecanone]
Mono 2 rate ([1]; substrate 0.1 mM): 0.6 min⁻¹
Mono 2 rate ([1]; substrate 0.5 mM): 0.9 min⁻¹
Mono 1 rate ([2]; substrate 0.1 mM): 1.2 min⁻¹
Mono 1 rate ([2]; substrate 0.5 mM): 1.4 min⁻¹

O=C1CCCC1 [cyclopentanone]
Mono 2 rate ([1]; substrate 0.1 mM): 90 min⁻¹
Mono 2 rate ([1]; substrate 0.5 mM): 120 min⁻¹
Mono 1 rate ([2]; substrate 0.1 mM): 1.2 min⁻¹
Mono 1 rate ([2]; substrate 0.5 mM): 7.0 min⁻¹

O=C1C=CCCC1 [cyclohex-2-ene-1-one]
Mono 2 rate ([1]; substrate 0.1 mM): 64 min⁻¹
Mono 2 rate ([1]; substrate 0.5 mM): 80 min⁻¹
Mono 1 rate ([2]; substrate 0.1 mM): 2.3 min⁻¹
Mono 1 rate ([2]; substrate 0.5 mM): 1.9 min⁻¹

O=C1CCCCC1=O [1,2-cyclohexanedione]
Mono 2 rate ([1]; substrate 0.1 mM): 7.6 min⁻¹
Mono 2 rate ([1]; substrate 0.5 mM): 34 min⁻¹
Mono 1 rate ([2]; substrate 0.1 mM): 9 min⁻¹
Mono 1 rate ([2]; substrate 0.5 mM): 52 min⁻¹

CC1CCCC1=O (centres unmarked) [2-methylcyclopentanone]
Mono 2 rate ([1]; substrate 0.1 mM): 120 min⁻¹
Mono 2 rate ([1]; substrate 0.5 mM): 110 min⁻¹
Mono 1 rate ([2]; substrate 0.1 mM): 40 min⁻¹
Mono 1 rate ([2]; substrate 0.5 mM): 110 min⁻¹

O=C1CCC(=O)CC1 [1,4-cyclohexanedione]
Mono 2 rate ([1]; substrate 0.1 mM): 53 min⁻¹
Mono 2 rate ([1]; substrate 0.5 mM): 88 min⁻¹
Mono 1 rate ([2]; substrate 0.1 mM): 130 min⁻¹
Mono 1 rate ([2]; substrate 0.5 mM): 210 min⁻¹

O=C1CCCCC1 [cyclohexanone]
time until all cyclohexanone was oxidized [3]: about 75 min
Mono 2 rate ([1]; substrate 0.1 mM): 100 min⁻¹
Mono 2 rate ([1]; substrate 0.5 mM): 100 min⁻¹
Mono 1 rate ([2]; substrate 0.1 mM): 160 min⁻¹
Mono 1 rate ([2]; substrate 0.5 mM): 290 min⁻¹

CC1CCCCC1=O (centres unmarked) [2-methylcyclohexanone]
Mono 2 rate ([1]; substrate 0.1 mM): 37 min⁻¹
Mono 2 rate ([1]; substrate 0.5 mM): 97 min⁻¹
Mono 1 rate ([2]; substrate 0.1 mM): 250 min⁻¹
Mono 1 rate ([2]; substrate 0.5 mM): 260 min⁻¹

O=C1CCCC(=O)C1 [1,3-cyclohexanedione]
Mono 2 rate ([1]; substrate 0.1 mM): 18 min⁻¹
Mono 2 rate ([1]; substrate 0.5 mM): 60 min⁻¹
Mono 1 rate ([2]; substrate 0.1 mM): 0.3 min⁻¹
Mono 1 rate ([2]; substrate 0.5 mM): 1.2 min⁻¹
